Reference: patent publication US20100311729A1, “Substituted imidazopyridazines and pyrrolopyrimidines as lipid kinase inhibitors” (priority 2007, published 2010)
pIC50: −log10 of the molar value.

What was measured:
Type in all cases: biochemical
PI3K alfa = biological target: T1, PI3K alfa (Homo sapiens, UniProt P42336); assay: PI3 kinase assay (Kinase-Glo luminescence), PI3K alfa; conditions: Enzymatic Data; read-out: PI3K alfa IC50 [umol]
T1 construct: for the p110-a subunit (with a deletion of the first 20 amino acids); His tag (C); made in house; host or cells: baculovirus; Tn5 (Trichoplusia ni) or TiniPro insect cells
T1 sequence (P42336 with tags, fused parts or gaps limits assumed): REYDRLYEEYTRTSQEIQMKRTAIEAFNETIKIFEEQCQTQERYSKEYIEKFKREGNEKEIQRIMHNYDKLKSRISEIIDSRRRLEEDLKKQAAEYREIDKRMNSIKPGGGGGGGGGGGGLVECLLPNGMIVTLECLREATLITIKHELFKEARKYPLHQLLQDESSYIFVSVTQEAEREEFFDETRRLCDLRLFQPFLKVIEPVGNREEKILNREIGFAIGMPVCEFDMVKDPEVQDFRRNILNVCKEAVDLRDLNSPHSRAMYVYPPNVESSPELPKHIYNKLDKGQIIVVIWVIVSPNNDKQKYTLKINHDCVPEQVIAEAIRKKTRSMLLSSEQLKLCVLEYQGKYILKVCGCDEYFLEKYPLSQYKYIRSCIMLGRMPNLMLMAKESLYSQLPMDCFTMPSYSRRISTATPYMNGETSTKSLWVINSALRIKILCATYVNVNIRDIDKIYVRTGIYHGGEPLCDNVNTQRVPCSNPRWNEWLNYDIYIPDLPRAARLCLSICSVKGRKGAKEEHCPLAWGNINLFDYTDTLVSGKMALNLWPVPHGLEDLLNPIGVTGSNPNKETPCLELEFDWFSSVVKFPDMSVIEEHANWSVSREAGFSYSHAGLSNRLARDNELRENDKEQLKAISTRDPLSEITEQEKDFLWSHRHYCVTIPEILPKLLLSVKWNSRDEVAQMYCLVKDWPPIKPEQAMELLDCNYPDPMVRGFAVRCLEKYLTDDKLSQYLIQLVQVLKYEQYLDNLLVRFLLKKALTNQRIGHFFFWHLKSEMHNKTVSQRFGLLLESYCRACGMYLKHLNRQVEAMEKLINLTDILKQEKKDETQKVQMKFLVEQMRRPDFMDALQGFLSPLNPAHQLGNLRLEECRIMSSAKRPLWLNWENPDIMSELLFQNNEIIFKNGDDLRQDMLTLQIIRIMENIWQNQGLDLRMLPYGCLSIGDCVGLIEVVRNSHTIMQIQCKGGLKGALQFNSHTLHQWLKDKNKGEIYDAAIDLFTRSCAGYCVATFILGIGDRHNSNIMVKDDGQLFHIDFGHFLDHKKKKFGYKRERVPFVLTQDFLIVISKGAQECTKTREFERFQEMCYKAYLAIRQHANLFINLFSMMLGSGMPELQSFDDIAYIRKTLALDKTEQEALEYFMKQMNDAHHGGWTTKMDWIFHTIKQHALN
Description: (§1) In a more preferred assay, the kinase reaction is performed in a final volume of 10 μL per well of a low volume non binding CORNING, 384 well black plate (Cat. No. #3676). The final concentrations of ATP and phosphatidyl inositol (PI) in the assay are 1 μM and 10 μg/mL respectively. The reaction is started by the addition of ATP.
(§2) The components of the assay are added per well as follows:
(§3) 50 nL test compounds in 90% DMSO per well, in columns 1-20, 8 concentrations (1/3 and 1/3.33 serial dilution step) in single. • Low control: 50 nL of 90% DMSO in half the wells of columns 23-24 (0.45% in final). • High control: 50 nL of reference compound (e.g. compound of Example 7 in WO 2006/122806, incorporated by reference hereinin that regard) in the other half of columns 23-24 (2.5 μM in final). • Standard: 50 nL of reference compound as just mentioned diluted as the test compounds in columns 21-22 • 20 mL ‘buffer’ are prepared per assay: • 200 μL of 1M TRIS HCl pH7.5 (10 mM in final) • 60 μL of 1M MgCl2 (3 mM in final) • 500 μL of 2M NaCl (50 mM in final) • 100 μL of 10% CHAPS (0.05% in final) • 200 μL of 100 mM DTT (1 mM in final) • 18.94 mL of nanopure water • 10 mL ‘PI’ are prepared per assay: • 200 μL of 1 mg/ml L-alpha-Phosphatidylinositol (Liver Bovine, Avanti Polar Lipids Cat. No. 840042C MW=909.12) prepared in 3% OctylGlucoside (10 μg/ml in final) • 9.8 mL of ‘buffer’ • 10 mL ‘ATP’ are prepared per assay: • 6.7 μL of 3 mM stock of ATP giving a final concentration of 1 μM per well • 10 mL of ‘buffer’ • 2.5 mL of each PI3K construct are prepared per assay in ‘PI’ with the following final concentration : • 10 nM PI3K alfa B-1075 • 25 nM beta BV-949 • 10 nM delta BV-1060 • 150 nM gamma BV-950 • 5 μL of ‘PI/PI3K’ are added per well. • 5 μl ‘ATP’ are added per well to start the reaction. • The plates are then incubated at room temperature for 60 minutes (alfa, beta, delta) or 120 minutes (gamma). • The reaction is terminated by the addition of 10 μL Kinase-Glo (Promega Cat. No. #6714). • The assay plates are read after 10 minutes in Synergy 2 reader (BioTek, Vermont USA) with an integration time of 100 milliseconds and sensitivity set to 191. • Output : The High control is around 60'000 counts and the Low control is 30'000 or lower • This luminescence assay gives a useful Z′ ratio between 0.4 and 0.7
(§4) […] is determined by a four parameter curve fitting routine that comes aloneg with “excel fit”. A 4 Parameter logistic equation is used to calculate IC50 values (IDBS XLfit) of the percentage inhibition of each compound at 8 concentrations (usually 10, 3.0, 1.0, 0.3, 0.1, 0.030, 0.010 and […]). Alternatively, IC50 values are calculated using idbsXLfit model 204, which is a 4 parameter logistic model.
(§5) Testing with the following kinases in the test system mentioned above, with the kinases given in the following tables, the following IC 50 data can be obtained: […]

PI3K beta = biological target: T2, PI3K beta (Homo sapiens, UniProt P42338); assay: PI3 kinase assay (Kinase-Glo luminescence), PI3K beta; conditions: Enzymatic Data; read-out: PI3K beta IC50 [umol]
T2 construct: for the full-length p110-b subunit are generated and fused by overlapping PCR; His tag (C); made in house; host or cells: baculovirus; Tn5 (Trichoplusia ni) or TiniPro insect cells
T2 sequence (P42338 with tags, fused parts or gaps limits assumed): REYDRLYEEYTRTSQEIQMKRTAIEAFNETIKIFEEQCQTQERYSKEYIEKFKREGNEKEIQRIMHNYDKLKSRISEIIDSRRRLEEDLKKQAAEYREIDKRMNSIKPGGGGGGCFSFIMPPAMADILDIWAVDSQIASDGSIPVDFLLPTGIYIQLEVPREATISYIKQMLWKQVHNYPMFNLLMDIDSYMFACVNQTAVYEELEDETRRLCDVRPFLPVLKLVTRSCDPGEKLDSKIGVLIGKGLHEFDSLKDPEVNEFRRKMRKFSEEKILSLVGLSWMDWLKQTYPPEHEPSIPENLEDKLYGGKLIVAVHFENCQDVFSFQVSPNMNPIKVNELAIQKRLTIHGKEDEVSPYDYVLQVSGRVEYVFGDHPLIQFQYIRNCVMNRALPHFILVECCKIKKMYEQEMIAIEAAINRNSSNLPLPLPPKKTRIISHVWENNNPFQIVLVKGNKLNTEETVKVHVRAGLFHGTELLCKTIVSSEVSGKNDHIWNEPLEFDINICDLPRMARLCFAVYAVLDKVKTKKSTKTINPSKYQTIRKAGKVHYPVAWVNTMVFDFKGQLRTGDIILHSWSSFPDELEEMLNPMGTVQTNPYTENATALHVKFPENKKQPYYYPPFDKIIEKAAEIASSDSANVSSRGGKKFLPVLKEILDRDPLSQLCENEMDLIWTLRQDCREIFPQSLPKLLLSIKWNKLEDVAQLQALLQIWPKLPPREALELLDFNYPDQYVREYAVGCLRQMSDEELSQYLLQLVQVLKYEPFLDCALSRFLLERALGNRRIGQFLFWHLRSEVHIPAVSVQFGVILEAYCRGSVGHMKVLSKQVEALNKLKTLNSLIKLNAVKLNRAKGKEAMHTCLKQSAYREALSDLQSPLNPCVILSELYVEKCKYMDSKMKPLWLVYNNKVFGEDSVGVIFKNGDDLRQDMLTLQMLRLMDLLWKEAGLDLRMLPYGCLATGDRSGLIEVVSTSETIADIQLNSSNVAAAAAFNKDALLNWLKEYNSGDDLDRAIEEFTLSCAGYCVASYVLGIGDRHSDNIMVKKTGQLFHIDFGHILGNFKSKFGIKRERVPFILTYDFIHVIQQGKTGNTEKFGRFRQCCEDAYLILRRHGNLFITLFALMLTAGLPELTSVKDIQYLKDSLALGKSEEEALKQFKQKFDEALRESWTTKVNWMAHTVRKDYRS
Description: as §1, §2, §3, §4, §5

PI3K delta = biological target: T3, PI3K delta (Homo sapiens, UniProt O00329); assay: PI3 kinase assay (Kinase-Glo luminescence), PI3K delta; conditions: Enzymatic Data; read-out: PI3K delta IC50 [umol]
T3 construct: for the full-length p110-d subunit are generated and fused by overlapping PCR; His tag (C); made in house; host or cells: baculovirus; Tn5 (Trichoplusia ni) or TiniPro insect cells
T3 sequence (O00329 with tags, fused parts or gaps limits assumed): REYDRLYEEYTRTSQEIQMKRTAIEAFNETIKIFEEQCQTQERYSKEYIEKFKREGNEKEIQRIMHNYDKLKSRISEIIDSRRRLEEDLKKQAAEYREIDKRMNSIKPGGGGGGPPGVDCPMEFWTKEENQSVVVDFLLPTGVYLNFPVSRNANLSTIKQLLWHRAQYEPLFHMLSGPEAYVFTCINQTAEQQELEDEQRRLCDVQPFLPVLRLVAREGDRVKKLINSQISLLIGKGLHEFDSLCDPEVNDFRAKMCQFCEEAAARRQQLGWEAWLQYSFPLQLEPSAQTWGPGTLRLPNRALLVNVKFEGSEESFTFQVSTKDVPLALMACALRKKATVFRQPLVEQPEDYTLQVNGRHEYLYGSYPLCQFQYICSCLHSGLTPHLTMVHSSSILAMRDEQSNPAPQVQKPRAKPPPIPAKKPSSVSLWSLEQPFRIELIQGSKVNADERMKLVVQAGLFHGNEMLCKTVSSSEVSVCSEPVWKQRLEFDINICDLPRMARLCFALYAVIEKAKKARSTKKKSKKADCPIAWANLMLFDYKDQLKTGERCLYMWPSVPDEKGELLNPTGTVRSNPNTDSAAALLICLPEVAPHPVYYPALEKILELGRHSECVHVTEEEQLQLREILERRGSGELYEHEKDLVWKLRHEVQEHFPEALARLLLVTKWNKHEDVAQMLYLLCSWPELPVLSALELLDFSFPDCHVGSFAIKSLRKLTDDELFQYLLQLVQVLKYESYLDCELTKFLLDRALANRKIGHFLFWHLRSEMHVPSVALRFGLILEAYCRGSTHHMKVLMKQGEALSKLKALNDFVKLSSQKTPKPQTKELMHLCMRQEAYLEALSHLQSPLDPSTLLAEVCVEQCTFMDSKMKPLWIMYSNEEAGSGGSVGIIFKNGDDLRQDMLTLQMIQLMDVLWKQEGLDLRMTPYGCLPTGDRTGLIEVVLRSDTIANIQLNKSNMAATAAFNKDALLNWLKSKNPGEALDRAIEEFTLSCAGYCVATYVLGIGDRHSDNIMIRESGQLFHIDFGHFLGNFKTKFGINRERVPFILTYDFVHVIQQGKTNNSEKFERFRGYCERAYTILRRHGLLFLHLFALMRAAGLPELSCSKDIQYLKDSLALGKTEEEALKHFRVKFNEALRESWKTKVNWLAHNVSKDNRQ
Description: as §1, §2, §3, §4, §5

PI3K gamma = biological target: T4, PI3K gamma (Homo sapiens, UniProt P48736); assay: PI3 kinase assay (Kinase-Glo luminescence), PI3K gamma; conditions: Enzymatic Data; read-out: PI3K gamma IC50 [umol]
T4 construct: PI3Kγ BV-950 p110g(D144aa)-C-Term His Tag; His tag (C); made in house; host or cells: construct from the Roger Williams lab (MRC LMB) in pVL1393; baculovirus; Tn5 (Trichoplusia ni) or TiniPro insect cells
T4 sequence (P48736 144-1102 limits assumed): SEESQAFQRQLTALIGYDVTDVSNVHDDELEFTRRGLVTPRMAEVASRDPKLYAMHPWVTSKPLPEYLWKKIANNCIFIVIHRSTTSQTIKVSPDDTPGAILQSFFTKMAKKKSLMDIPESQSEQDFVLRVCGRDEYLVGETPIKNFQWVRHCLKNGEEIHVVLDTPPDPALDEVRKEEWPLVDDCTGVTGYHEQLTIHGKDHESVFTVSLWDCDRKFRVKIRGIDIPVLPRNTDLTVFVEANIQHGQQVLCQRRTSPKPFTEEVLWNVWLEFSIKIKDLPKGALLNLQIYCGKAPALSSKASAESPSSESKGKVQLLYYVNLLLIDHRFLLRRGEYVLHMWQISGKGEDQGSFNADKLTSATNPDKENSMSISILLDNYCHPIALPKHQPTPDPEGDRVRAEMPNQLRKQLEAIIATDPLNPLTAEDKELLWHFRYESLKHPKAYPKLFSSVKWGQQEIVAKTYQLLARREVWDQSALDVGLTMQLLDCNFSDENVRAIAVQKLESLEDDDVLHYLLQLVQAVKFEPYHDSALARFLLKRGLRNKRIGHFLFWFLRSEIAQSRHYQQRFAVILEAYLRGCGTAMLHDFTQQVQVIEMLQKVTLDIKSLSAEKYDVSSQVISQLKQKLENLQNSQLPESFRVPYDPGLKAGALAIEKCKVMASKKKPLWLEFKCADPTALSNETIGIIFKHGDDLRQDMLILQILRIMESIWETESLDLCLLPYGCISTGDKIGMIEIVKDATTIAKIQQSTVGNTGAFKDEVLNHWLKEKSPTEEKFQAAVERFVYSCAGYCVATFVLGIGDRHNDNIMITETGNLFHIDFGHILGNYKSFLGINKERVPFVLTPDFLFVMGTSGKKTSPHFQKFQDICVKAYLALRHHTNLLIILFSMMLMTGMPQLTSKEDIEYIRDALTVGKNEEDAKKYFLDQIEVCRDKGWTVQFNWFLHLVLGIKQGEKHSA
Description: as §1, §2, §4

pIC50 (PI3K alfa) | pIC50 (PI3K beta) | pIC50 (PI3K delta) | pIC50 (PI3K gamma) | SMILES
6.77 | 5.58 | 6.13 | 5.07 | CC(=O)NCCCOc1ccc(-c2ccc3ncc(-c4cnc(N)c(C(F)(F)F)c4)n3n2)cc1 [Example 71, N-(3-{4-[3-(6-Amino-5-trifluoro-methyl-pyridin-3-yl)-imidazo [1,2-b]pyridazin-6-yl]-phenoxy}-propyl)-acetamide]
6.42 | < 5.04 | < 5.04 | < 5.04 | CC(C)(C)OC(=O)N1CCC(Oc2ccc(-c3ccc4ncc(-c5cnc(N)c(C(F)(F)F)c5)n4n3)cc2)CC1 [Example 162, 4-{4-[3-(6-Amino-5-trifluoro-methyl-pyridin-3-yl)-imidazo [1,2-b]pyridazin-6-yl]-phenoxy}-piperidine-1-carboxylic acid tert-butyl ester]
7.16 | 6.04 | 7.07 | 5.72 | Nc1ncc(-c2cnc3ccc(-c4ccc(OCCCN5CCNC5=O)cc4)nn23)cc1C(F)(F)F [Example 163, 1-(3-{4-[3-(6-Amino-5-trifluoro-methyl-pyridin-3-yl)-imidazo [1,2-b]pyridazin-6-yl]-phenoxy}-propyl)-imidazolidin-2-one]
6.46 | < 5.04 | 6.24 | 5.89 | O=C(NCCCOc1ccc(-c2ccc3ncc(-c4cncc(C(F)(F)F)c4)n3n2)cc1)C1CC1 [Example 130, Cyclo-propane-carboxylic acid (3-{4-[3-(5-trifluoro-methyl-pyridin-3-yl)-imidazo [1,2-b]pyridazin-6-yl]-phenoxy}-propyl)-amide]
7.36 | 7.14 | 7.55 | 5.93 | Nc1ncc(-c2ccc3ncc(-c4cnc5c(c4)ncn5CCN4CCOCC4)n3n2)cc1C(F)(F)F [Example 143, 5-{3-[3-(2-Morpholin-4-yl-ethyl)-3H-imidazo [4,5-b]pyridin-6-yl]-imidazo [1,2-b]pyridazin-6-yl}-3-trifluoro-methyl-pyridin-2-ylamine]
7.62 | 7.03 | 7.59 | 6.38 | Nc1ncc(-c2ccc3ncc(-c4ccc(C(=O)NCCCN5CCOCC5)c(F)c4)n3n2)cc1C(F)(F)F [Example 100, 4-[6-(6-Amino-5-trifluoro-methyl-pyridin-3-yl)-imidazo [1,2-b]pyridazin-3-yl]-2-fluoro-N-(3-morpholin-4-yl-propyl)-benzamide]
7.20 | 6.62 | 6.99 | 5.91 | CCS(=O)(=O)c1ccc(-c2cnc3ccc(-c4cnc(N)c(C(F)(F)F)c4)nn23)cc1 [Example 33, 5-[3-(4-Ethanesulfonyl-phenyl)-imidazo[1,2-b]pyridazin-6-yl]-3-trifluoro-methyl-pyridin-2-ylamine]
8.40 | 6.87 | 7.96 | 6.24 | COc1cc(-c2ccc3ncc(-c4cnc(N)c(C(F)(F)F)c4)n3n2)ccc1OCCN1CCCC1=O [Example 103, 1-(2-{4-[3-(6-Amino-5-trifluoro-methyl-pyridin-3-yl)-imidazo [1,2-b]pyridazin-6-yl]-2-methoxy-phenoxy}-ethyl)-pyrrolidin-2-one]
6.80 | 6.17 | 6.82 | 5.49 | CC(=O)NCCn1cc(-c2ccc3ncc(-c4cnc(N)c(C(F)(F)F)c4)n3n2)ccc1=O [Example 76, N-(2-{5-[3-(6-Amino-5-trifluoro-methyl-pyridin-3-yl)-imidazo [1,2-b]pyridazin-6-yl]-2-oxo-2H-pyridin-1-yl}-ethyl)-acetamide]
7.42 | 6.52 | 7.48 | 5.89 | COc1cc(-c2cnc3ccc(-c4cnc(N)c(C(F)(F)F)c4)nn23)ccc1C(=O)N1CCN(CCc2ccccn2)CC1 [Example 133, {4-[6-(6-Amino-5-trifluoro-methyl-pyridin-3-yl)-imidazo [1,2-b]pyridazin-3-yl]-2-methoxy-phenyl)-[4-(2-pyridin-2-yl-ethyl)-piperazin-1-yl]-methanone]
7.74 | 6.77 | 8.15 | 6.28 | CC(=O)N1CCN(C(=O)c2ccc(-c3cnc4ccc(-c5cnc(N)c(C(F)(F)F)c5)nn34)cc2)CC1 [Example 82, 1-(4-{4-[6-(6-Amino-5-trifIuoro-methyl-pyridin-3-yl)-imidazo [1,2-b]pyridazin-3-yl]-benzoyl}-piperazin-1-yl)-ethanone]
8.22 | 6.81 | 7.59 | 6.34 | COc1cc(-c2ccc3ncc(-c4cnc(N)c(C(F)(F)F)c4)n3n2)ccc1OCCCN1CCNC1=O [Example 164, 1-(3-{4-[3-(6-Amino-5-trifluoro-methyl-pyridin-3-yl)-imidazo [1,2-b]pyridazin-6-yl]-2-methoxy-phenoxy}-propyl)-imidazolidin-2-one]
7.48 | 7.62 | 7.22 | 6.40 | COc1cc(-c2ccc3ncc(-c4cnc(N)c(C(F)(F)F)c4)n3n2)ccc1OCCN [Example 59, 5-{6-[4-(2-Amino-ethoxy)-3-methoxy-phenyl]-imidazo [1,2-b]pyridazin-3-yl}-3-trifluoro-methyl-pyridin-2-ylamine]
8.10 | 8.52 | 7.77 | 6.32 | Nc1cnc(-c2cnc3ccc(-c4cnc(N)c(C(F)(F)F)c4)nn23)cn1 [Example 66, 5-[6-(6-Amino-5-trifluoro-methyl-pyridin-3-yl)-imidazo [1,2-b]pyridazin-3-yl]-pyrazin-2-ylamine]
7.82 | 6.68 | 7.24 | 5.94 | Nc1ncc(-c2ccc3ncc(-c4ccc(C(=O)NCCN5CCOCC5)cc4)n3n2)cc1C(F)(F)F [Example 80, 4-[6-(6-Amino-5-trifluoro-methyl-pyridin-3-yl)-imidazo [1,2-b]pyridazin-3-yl]-N-(2-morpholin-4-yl-ethyl)-benzamide]
6.91 | 6.73 | 6.77 | < 5.04 | CNS(=O)(=O)c1ccc(-c2cnc3ccc(-c4cnc(N)c(C(F)(F)F)c4)nn23)cc1 [Example 35, 4-[6-(6-Amino-5-trifluoro-methyl-pyridin-3-yl)-imidazo [1,2-b]pyridazin-3-yl]-N-methyl-benzene-sulfon-amide]
7.72 | 6.38 | 7.23 | 5.98 | Nc1ncc(-c2ccc3ncc(-c4ccc(C(=O)N5CCN(Cc6cccnc6)CC5)cc4)n3n2)cc1C(F)(F)F [Example 127, {4-[6-(6-Amino-5-trifluoro-methyl-pyridin-3-yl)-imidazo [1,2-b]pyridazin-3-yl]-phenyl}-(4-pyridin-3-ylmethyl-piperazin-1-yl)-methanone]
